What all share (format): cell-based, human
Series [1] has as its system HUVEC-ST cells. As to the kind of experiment: Mitochondrial membrane potential (JC-1) in HUVEC-ST cells. Particulars: anticancer drug IC50 alone 2 h, control = 100%. On the procedure:
(§1) Unless otherwise indicated, in experiments, cells were seeded at an appropriate density for the specific assay into 96-well plates or Petri dishes. They were then incubated in standard culture conditions, which included a temperature of 37 °C, 100% relative humidity, and a 5% CO2 incubator. […] After treatment, the cells were washed with PBS and, depending on the experiment, immediately used for measurement or cultured in a fresh medium for 24 or 48 h. Control cells were treated with a corresponding volume of PBS. Additional controls for solvents were also performed.
(§2) The mitochondrial membrane potential was measured with the membrane-permeant JC-1 fluorescent probe. […] Thus, the measurement of the ratio of JC-1 dimer to monomer fluorescence can be used for estimating changes in mitochondrial membrane potential (ΔΨm).
(§3) The cells were then incubated in complete darkness for 30 min at 37 °C. After incubation, the cells were washed to remove the dye and suspended in fresh HBSS solution. Finally, the fluorescence intensity was measured using a Cary Eclipse spectrofluorometer (Varian, Inc.) at λex/em = 475 nm/530 nm for monomers and at λex/em = 535 nm/590 nm for dimers. Subsequently, the ratio of the fluorescence intensities at 530 nm/590 nm was calculated. The mitochondrial potential in both cell lines was measured immediately after incubation with investigated compounds. The results are expressed as a percentage of the control, considered 100%.

For series [2], the system named is HUVEC-ST cells. As to the kind of experiment: Annexin V FITC/propidium iodide double staining in HUVEC-ST cells. The conditions noted are these: docetaxel IC50 alone. On the procedure: as §1
(§4) This assay is based on the principle that, in viable cells, phosphatidylserine (PS) is located in the inner membrane (side facing the cytoplasm). However, upon induction of apoptosis, PS is translocated to the outer membrane (PS also appears on the necrotic cell surface). The exposed phosphatidylserine can be detected by protein Annexin V stained with FITC dye. The addition of propidium iodide (PI) enabled necrotic cells to be distinguished. Thus, this method is convenient for counting and differentiating live cells from those undergoing apoptosis or necrosis.
(§5) The analysis was performed according to the manufacturer’s protocol on cells immediately after the treatment and 24 or 48 h postincubation. Samples were analyzed using the flow cytometer LSR® II from Becton Dickinson (San Jose, CA, USA) using an argon laser with a wavelength of λ = 488 nm.

Series [3] relates to MCF-7 cells. As to the kind of experiment: Annexin V FITC/propidium iodide double staining in MCF-7 cells. Particulars: for Viable cells: docetaxel IC50 alone. On the procedure: as §1, §4, §5
The subject of series [4] is MCF-7 cells. As to the kind of experiment: MTT cell viability assay on MCF-7 cells. The conditions noted are these: for IC50: Homo sapiens, MCF7, 2 h incubation, breast cancer cells, used for both cell lines, read-out: Drug IC50 concentration from MTT survival curves; for Concentrations giving statistically significant decrease in survival: MCF-7, 2 h incubation with anticancer drug, MTT. On the procedure:
as §1
(§6) The principle of the method is a measurement of the absorbance of formazan, a product of the reduction of the water-soluble tetrazolium salt (MTT) by NADPH-dependent cellular oxidoreductases (mainly succinate dehydrogenase) in living cells. Formazan is insoluble in water and precipitates as purple crystals. The amount of formazan is proportional to the number of living and metabolically active cells.
(§7) After treatment, the cells were washed with PBS and cultured in a fresh medium for 48 h. Subsequently, the medium was aspirated, and an aliquot of 50 µL of 0.05 mg/mL MTT solution was added to each microplate well for 3 h. The formazan crystals were dissolved in dimethyl sulfoxide (DMSO), and the absorbance was measured at a wavelength of λ = 580 nm. The percentage of viable cells was calculated by comparing the absorbance value of the test samples to the absorbance value of the control, taking the absorbance of the control as 100%.

The subject of series [5] is HUVEC-ST cells. As to the kind of experiment: MTT cell viability assay on HUVEC-ST cells. The conditions noted are these: HUVEC-ST, MTT. As to the method: as §1, §6, §7
Series [6] deals with MCF-7 cells. As to the kind of experiment: Mitochondrial membrane potential (JC-1) in MCF-7 cells. The conditions noted are these: anticancer drug IC50 alone 2 h, control = 100%. On the procedure:
as §1, §2, §3

The test system of series [7] is HUVEC-ST cells. As to the kind of experiment: Alkaline comet assay in HUVEC-ST cells. The conditions noted are these: doxorubicin IC50 alone, 48 h after incubation. As to the method: as §1
The comet assay, also known as the single-cell gel electrophoresis assay, is a highly sensitive and versatile method for measuring single- and double-stranded DNA breaks. The assay uses an electric field to move negatively charged DNA fragments through an agarose gel. The amount of migration reflects the level of DNA damage in the cells.
The analysis was performed under alkaline conditions, according to the method of Singh et al., on cells immediately after the treatment and 24 or 48 h postincubation. A suspension of cells was mixed with low-melting-point agarose (LMP type XI) and spread onto a microscope glass slide previously coated with standard melting point agarose (NMP type I). After 2 h of cells lysis in a buffer containing (2.5 mol/L NaCl, 100 mmol/L Na2-EDTA, 10 mmol/L TRIS, 1% Triton X-100), DNA unwinding and electrophoresis were carried out in a buffer containing (1 mmol/L Na2-EDTA, 300 mmol/L NaOH) and (29 V, 30 mA). Before analysis, the slides were stained with DAPI solution (2 μg/mL). One hundred randomly chosen cells were analyzed on each slide using a fluorescence microscope Zeiss Axio Scope A1 (Carl Zeiss, Oberkochen, Germany) with a video camera connected to the image-analysis system Lucia-Comet v. 7.60 (Laboratory Imaging, Praha, Czech Republic).

Series [8] in a line: Annexin V FITC/propidium iodide double staining in HUVEC-ST cells. Particulars: human, HUVEC-ST cells, doxorubicin IC50 alone, longest postincubation time (48 h), read-out: Viable cells. As to the method:
as §1, §4, §5

A value given as a limit tells only on which side of the number the result lay.

As for `CC(=O)O[C@@]12CO[C@@H]1C[C@H](O)[C@@]1(C)C(=O)[C@H](O)C3=C(C)[C@@H](OC(=O)[C@H](O)[C@@H](NC(=O)OC(C)(C)C)c4ccccc4)C[C@@](O)([C@@H](OC(=O)c4ccccc4)[C@H]21)C3(C)C` [docetaxel], the results for the “Mitochondrial membrane potential ΔΨm, % of control” value in the series on HUVEC-ST cells [1] and in the series on MCF-7 cells [6] were 54% and 65%, respectively. The “AV+/PI+ cells” value with HUVEC-ST cells [2] (24 h after incubation) came to 23%; with HUVEC-ST cells [2] (longest postincubation time (48 h)), 26%. Besides, the Viable cells in the series with MCF-7 cells [3] (24 h after incubation) stood at 53%; in the series with MCF-7 cells [3] (48 h after incubation), 43%. The IC50 in the series with MCF-7 cells [4] was determined as 100 nM. The “Concentrations giving statistically significant decrease in survival” value in the series with MCF-7 cells [4] is ≥ 0.02 µmol/L. Besides, the “Decrease in survival at highest concentration” value with HUVEC-ST cells [5] (6 µmol/L, 2 h incubation) is recorded as 20%.
On to `COc1cccc2c1C(=O)c1c(O)c3c(c(O)c1C2=O)C[C@@](O)(C(=O)CO)C[C@@H]3O[C@H]1C[C@H](N)[C@H](O)[C@H](C)O1` [doxorubicin, Doxorubicin], for which the entries for the “Mitochondrial membrane potential ΔΨm, % of control” value in the series on HUVEC-ST cells [1] and in the series with MCF-7 cells [6] were 73% and 57%, respectively. For the same compound, the “DNA in the comet tail” value in the series with HUVEC-ST cells [7] turned out to be 10%. Also, the viability in series [8] was 47%. Besides, in the series with MCF-7 cells [3] (doxorubicin IC50 alone, 48 h post-incubation), the “AV+/PI− cells (undergoing apoptosis)” value was 12%. Moreover, in the series on MCF-7 cells [4], the IC50 worked out at 3000 nM. The “Concentrations giving statistically significant decrease in survival” value with MCF-7 cells [4] was ≥ 1 µmol/L; in the series on HUVEC-ST cells [5] (2 h incubation with anticancer drug), ≥ 0.5 µmol/L. For the same compound, in the series on MCF-7 cells [4] (MCF-7, doxorubicin 3 µmol/L used alone), the Viable cells is 54%.
